According to the supplement of paper PMC10307832:

Experiments:
Assay in all cases: relative viability (nuclei count vs DMSO), 5 days (fraction); higher = more cells survive
[1] = test system: IA-LM
How it was run: (§1)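 Values are medians from duplicate plates. Each reflects relative viability, defined as the nuclei count of treated wells over that of vehicle wells. Lung cancer cell lines in 1536-well plates were pin-tool dosed one day after seeding with one drug alone or with a fixed anchor-drug dose plus five library-drug doses (not always all listed) in √10 steps, then fixed, stained and imaged at 4× after 5 days.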

[2] = test system: EKVX
How it was run: as §1

[3] = test system: EBC-1
How it was run: as §1

[4] = test system: NCI-H1648
How it was run: as §1

[5] = test system: Calu-6
How it was run: as §1

[6] = test system: NCI-H1395
How it was run: as §1

[7] = test system: A549
How it was run: as §1

[8] = test system: NCI-H1299
How it was run: as §1

[9] = test system: NCI-H1755
How it was run: as §1

[10] = test system: HCC-44
How it was run: as §1

[11] = test system: NCI-H1703
How it was run: as §1

[12] = test system: LCLC-103H
How it was run: as §1

[13] = test system: UMC-11
How it was run: as §1

[14] = test system: HCC-15
How it was run: as §1

SMILES: CCN(CC)CCCCNc1ncc2cc(-c3cc(OC)cc(OC)c3)c(NC(=O)NC(C)(C)C)nc2n1 + O=C(c1cc(Cc2n[nH]c(=O)c3ccccc23)ccc1F)N1CCN(C(=O)C2CC2)CC1 [Olaparib] (partner 8 µM)
- relative viability ([1]; first compound 0.01 µM): 0.821
- relative viability ([1]; first compound 0.03162 µM): 0.88
- relative viability ([1]; first compound 0.1 µM): 0.946
- relative viability ([1]; first compound 0.3162 µM): 0.762
- relative viability ([1]; first compound 1 µM): 0.936
- relative viability ([2]; first compound 0.03162 µM): 0.873
- relative viability ([2]; first compound 0.1 µM): 1.07
- relative viability ([2]; first compound 0.3162 µM): 1.05
- relative viability ([2]; first compound 1 µM): 0.868
- relative viability ([3]; first compound 0.01 µM): 0.738
- relative viability ([3]; first compound 0.03162 µM): 0.684
- relative viability ([3]; first compound 0.1 µM): 0.779
- relative viability ([3]; first compound 0.3162 µM): 0.824
- relative viability ([3]; first compound 1 µM): 0.705
- relative viability ([4]; first compound 0.01 µM): 0.991
- relative viability ([4]; first compound 0.03162 µM): 0.767
- relative viability ([4]; first compound 0.1 µM): 0.781
- relative viability ([4]; first compound 0.3162 µM): 0.703
- relative viability ([4]; first compound 1 µM): 0.648
- relative viability ([5]; first compound 0.03162 µM): 0.583
- relative viability ([5]; first compound 0.1 µM): 0.627
- relative viability ([5]; first compound 0.3162 µM): 0.694
- relative viability ([5]; first compound 1 µM): 0.556
- relative viability ([6]; first compound 0.01 µM): 0.46
- relative viability ([6]; first compound 0.03162 µM): 0.467
- relative viability ([6]; first compound 0.1 µM): 0.478
- relative viability ([6]; first compound 0.3162 µM): 0.497
- relative viability ([6]; first compound 1 µM): 0.431
- relative viability ([7]; first compound 0.01 µM): 0.273
- relative viability ([7]; first compound 0.03162 µM): 0.367
- relative viability ([7]; first compound 0.1 µM): 0.318
- relative viability ([7]; first compound 0.3162 µM): 0.32
- relative viability ([7]; first compound 1 µM): 0.349
- relative viability ([8]; first compound 0.01 µM): 1.03
- relative viability ([8]; first compound 0.03162 µM): 0.991
- relative viability ([8]; first compound 0.1 µM): 1.01
- relative viability ([8]; first compound 0.3162 µM): 1.04
- relative viability ([8]; first compound 1 µM): 0.998
- relative viability ([9]; first compound 0.01 µM): 0.874
- relative viability ([9]; first compound 0.03162 µM): 0.947
- relative viability ([9]; first compound 0.1 µM): 0.958
- relative viability ([9]; first compound 0.3162 µM): 1.01
- relative viability ([9]; first compound 1 µM): 0.934
- relative viability ([10]; first compound 0.01 µM): 1.06
- relative viability ([10]; first compound 0.03162 µM): 1.07
- relative viability ([10]; first compound 0.1 µM): 1.03
- relative viability ([10]; first compound 0.3162 µM): 1.01
- relative viability ([10]; first compound 1 µM): 0.942
- relative viability ([11]; first compound 0.01 µM): 0.313
- relative viability ([11]; first compound 0.03162 µM): 0.421
- relative viability ([11]; first compound 0.1 µM): 0.52
- relative viability ([11]; first compound 0.3162 µM): 0.383
- relative viability ([11]; first compound 1 µM): 0.388
- relative viability ([12]; first compound 0.01 µM): 0.813
- relative viability ([12]; first compound 0.03162 µM): 0.788
- relative viability ([12]; first compound 0.1 µM): 0.888
- relative viability ([12]; first compound 0.3162 µM): 0.833
- relative viability ([12]; first compound 1 µM): 0.567
- relative viability ([13]; first compound 0.01 µM): 0.39
- relative viability ([13]; first compound 0.03162 µM): 0.372
- relative viability ([13]; first compound 0.1 µM): 0.422
- relative viability ([13]; first compound 0.3162 µM): 0.353
- relative viability ([13]; first compound 1 µM): 0.422
- relative viability ([14]; first compound 0.01 µM): 0.681
- relative viability ([14]; first compound 0.03162 µM): 0.777
- relative viability ([14]; first compound 0.1 µM): 0.783
- relative viability ([14]; first compound 0.3162 µM): 0.82
- relative viability ([14]; first compound 1 µM): 0.728

SMILES: O=c1cc(-c2cccc3c2Sc2ccccc2S3)oc(N2CCOCC2)c1 + O=C(c1cc(Cc2n[nH]c(=O)c3ccccc23)ccc1F)N1CCN(C(=O)C2CC2)CC1 [Olaparib] (partner 8 µM)
- relative viability ([1]; first compound 0.08 µM): 0.848
- relative viability ([1]; first compound 0.253 µM): 1.07
- relative viability ([1]; first compound 0.8 µM): 0.934
- relative viability ([1]; first compound 2.53 µM): 0.796
- relative viability ([1]; first compound 8 µM): 0.866
- relative viability ([2]; first compound 0.08 µM): 0.829
- relative viability ([2]; first compound 0.253 µM): 0.852
- relative viability ([2]; first compound 0.8 µM): 0.623
- relative viability ([2]; first compound 2.53 µM): 0.803
- relative viability ([2]; first compound 8 µM): 1.05
- relative viability ([3]; first compound 0.08 µM): 0.618
- relative viability ([3]; first compound 0.253 µM): 0.831
- relative viability ([3]; first compound 0.8 µM): 0.732
- relative viability ([3]; first compound 2.53 µM): 0.619
- relative viability ([3]; first compound 8 µM): 0.324
- relative viability ([4]; first compound 0.253 µM): 1.01
- relative viability ([4]; first compound 0.8 µM): 0.781
- relative viability ([4]; first compound 8 µM): 1.2
- relative viability ([5]; first compound 0.08 µM): 0.63
- relative viability ([5]; first compound 0.253 µM): 0.636
- relative viability ([5]; first compound 0.8 µM): 0.601
- relative viability ([5]; first compound 2.53 µM): 0.599
- relative viability ([5]; first compound 8 µM): 0.549
- relative viability ([6]; first compound 0.08 µM): 0.404
- relative viability ([6]; first compound 0.253 µM): 0.416
- relative viability ([6]; first compound 0.8 µM): 0.513
- relative viability ([6]; first compound 2.53 µM): 0.471
- relative viability ([6]; first compound 8 µM): 0.47
- relative viability ([7]; first compound 0.08 µM): 0.224
- relative viability ([7]; first compound 0.253 µM): 0.348
- relative viability ([7]; first compound 0.8 µM): 0.277
- relative viability ([7]; first compound 2.53 µM): 0.354
- relative viability ([7]; first compound 8 µM): 0.363
- relative viability ([8]; first compound 0.08 µM): 0.951
- relative viability ([8]; first compound 0.253 µM): 1.05
- relative viability ([8]; first compound 0.8 µM): 1.04
- relative viability ([8]; first compound 2.53 µM): 1.02
- relative viability ([8]; first compound 8 µM): 0.909
- relative viability ([9]; first compound 0.08 µM): 0.843
- relative viability ([9]; first compound 0.253 µM): 0.998
- relative viability ([9]; first compound 0.8 µM): 0.846
- relative viability ([9]; first compound 2.53 µM): 0.884
- relative viability ([9]; first compound 8 µM): 0.91
- relative viability ([10]; first compound 0.08 µM): 0.927
- relative viability ([10]; first compound 0.253 µM): 1.02
- relative viability ([10]; first compound 0.8 µM): 0.972
- relative viability ([10]; first compound 2.53 µM): 1.02
- relative viability ([10]; first compound 8 µM): 0.951
- relative viability ([11]; first compound 0.08 µM): 0.314
- relative viability ([11]; first compound 0.253 µM): 0.445
- relative viability ([11]; first compound 0.8 µM): 0.406
- relative viability ([11]; first compound 2.53 µM): 0.246
- relative viability ([11]; first compound 8 µM): 0.227
- relative viability ([12]; first compound 0.08 µM): 0.765
- relative viability ([12]; first compound 0.253 µM): 0.776
- relative viability ([12]; first compound 0.8 µM): 0.873
- relative viability ([12]; first compound 2.53 µM): 0.736
- relative viability ([12]; first compound 8 µM): 0.71
- relative viability ([13]; first compound 0.08 µM): 0.365
- relative viability ([13]; first compound 0.253 µM): 0.74
- relative viability ([13]; first compound 0.8 µM): 0.325
- relative viability ([13]; first compound 2.53 µM): 0.344
- relative viability ([13]; first compound 8 µM): 0.42
- relative viability ([14]; first compound 0.08 µM): 0.756
- relative viability ([14]; first compound 0.253 µM): 0.772
- relative viability ([14]; first compound 0.8 µM): 0.707
- relative viability ([14]; first compound 2.53 µM): 0.654
- relative viability ([14]; first compound 8 µM): 0.485
